Data on five molecules can be found in patent US12552798B2, “Substituted imidazolecarboxamide as Bruton's tyrosine kinase inhibitors” (Henan Zhiwei Biomedicine Co., Ltd., priority 2019, dated 2026).

Structures are written as SMILES. Read-outs that look alike come from different tables or passages of the source.

For one series, the target named is EGFR (Homo sapiens (Human), UniProt P00533). Briefly: EGFR kinase inhibitory assay (ELISA). It is filed as biochemical. The conditions noted are these: for Selectivity Ratio (BTK and EGFR): EGFR IC50 relative to BTK IC50; for IC50: ELISA, 3 μmol/L ATP. Here is the method: (§1) BTK, EGFR, BMX, or ITK Inhibitory Assay Procedure for BTK, BMX, EGFR and ITK Inhibitory Assay:
(§2) Kinase inhibitory activities of compounds were evaluated using the Enzyme-linked immunosorbent assay (ELISA). The kinase enzyme of BTK, BMX, EGFR and ITK were purchased from Carna Bioscience (Kobe, Japan). A total of 10 ng/mL antiphosphotyrosine (PY713) antibody (abcam, Cambridge Science Park, UK) was precoated in 96-well ELISA plates. The kinase enzymes in each reaction well were set to BTK (101.25 ng/mL), BMX (90 ng/mL), EGFR (90 ng/mL) or ITK (120 ng/mL) and incubated with indicated compounds in 1× reaction buffer (50 mmol/L HEPES pH 7.4, 20 mmol/L MgCl2, 0.1 mmol/L MnCl2, 1 mmol/L DTT) containing 20 μmol/L (the final concentration of substrate in ITK reaction was 30 μmol/L) substrate (NH2-ETVYSEVRK-biotin) at 25° C. for 1 h. Then, a total of 3 μmol/L ATP was added and the reaction was continued for 2 hrs. The products of reaction were transferred into 96-well ELISA plates containing antibody and incubated at 25° C. for 30 min. After incubation, the wells were washed with PBS and then incubated with horseradish peroxidase […]-conjugated streptavidin. The wells were visualized using 3,3′,5,5′-tetramethylbenzidine (TMB), and chromogenic reaction was ended with 2 mol/L H2SO4, the absorbance was read with a multimode plate reader (PerkinElmer, USA) at 450 nm. IC50 values and curve fits were obtained using Prism (GraphPad Software).
In general terms: An ELISA detects its analyte on a solid surface through an enzyme-linked reagent.

For a further series, the system named is TMD8. Briefly: Cell antiproliferative activity assay (CellTiter-Glo), TMD8. To be noted: read-out: Cell Growth IC50 (nM) TMD8. It is filed as cell-based. Here is the method: (§3) Cell Antiproliferative Activity Assay
(§4) Cell antiproliferative activity was evaluated by the CellTiter-Glo (Promega, USA) assay. Make 1000× compounds solution in DMSO, add 1 μl 1000× compounds to […] growth medium to make 20× compounds. Dilute cell suspensions in growth medium to desired density and 95 μl were taken to 96-well plate. Add 5 μl 20× compounds into 96-well plate according to the plate map. Final DMSO concentration in each well was 0.1%. Then the cell was incubated at 37° C., 5% CO2 for 72 hs. Equilibrate the assay plate to room temperature before measurement. Add 20 μl of CellTiter-Glo© Reagent into each well. Mix contents for 2 minutes on an orbital shaker to induce cell lysis. Incubate at room temperature for 10 minutes to stabilize luminescent signal. Record luminescence using EnVision Multilabel Reader (PerkinElmer). Cell viability (CV %) was calculated relative to vehicle (DMSO) treated control wells using following formula: Cell viability (%)=(RLU compound−RLU blank)/(RLU control−RLU blank)*100%. The IC50 values were calculated using GraphPad Prism 6.0 software, fitting to a 4-parameter equation to generate concentration response curves. All assays were conducted with three parallel samples and three repetitions.

A further series addresses BMX (Homo sapiens (Human), UniProt P51813). Briefly: BMX kinase inhibitory assay (ELISA). It is filed as biochemical. To be noted: for Selectivity Ratio (BTK and BMX): BMX IC50 relative to BTK IC50; for IC50: ELISA, 3 μmol/L ATP. Here is the method:
as §1, §2

The target in the next series is ITK (Homo sapiens (Human), UniProt Q08881). Description: ITK kinase inhibitory assay (ELISA). It is filed as biochemical. To be noted: for IC50: ELISA, 3 μmol/L ATP; for Selectivity Ratio (BTK and ITK): ITK IC50 relative to BTK IC50. Here is the method:
as §1, §2

For the next series, the target named is BTK (Homo sapiens (Human), UniProt Q06187). Description: BTK kinase inhibitory assay (ELISA). It is filed as biochemical. The conditions noted are these: 3 μmol/L ATP. Here is the method:
as §1, §2

A short description of series [1]: PK properties assay in SD rats. To be noted: rat, plasma. It is filed as in vivo. Here is the method: Six SD rats were divided into two groups, and compound was administered by gavage and tail vein injection. The intravenous injection group was administered 2 min, 5 min, 15 min, 30 min, 1 h, 2 h, 4 h, 6 h, 8 h, and 12 h after administration. 0.25 mL of blood samples were collected from the posterior orbital venous plexus at 5 min, 15 min, 30 min, 1 h, 2 h, 4 h, 6 h, 8 h, 12 h, and 24 h after administration. LC-MS/MS method was used to determine the concentration of compound in plasma samples from SD rats, and the pharmacokinetic parameters were calculated using WinNolin software.

A further series deals with 293T. Briefly: Cell antiproliferative activity assay (CellTiter-Glo), 293T. It is filed as cell-based. To be noted: 72 hs, read-out: Cell Growth IC50 (nM) 293T. The procedure:
as §3, §4
For orientation: In ATP-based viability assays light output follows the ATP content of the culture.

The test system of another series is Ramos. Description: Cell antiproliferative activity assay (CellTiter-Glo), Ramos. It is filed as cell-based. The conditions noted are these: 72 hs, read-out: Cell Growth IC50 (nM) Ramos. Here is the method:
as §3, §4

A further series deals with MOLM-13. Briefly: Cell antiproliferative activity assay (CellTiter-Glo), MOLM-13. It is filed as cell-based. The conditions noted are these: Homo sapiens; MOLM-13, 72 hs; read-out: Cell Growth IC50 (nM) MOLM-13. Here is the method:
as §3, §4

EGFR, sequence (P00533 25-1210): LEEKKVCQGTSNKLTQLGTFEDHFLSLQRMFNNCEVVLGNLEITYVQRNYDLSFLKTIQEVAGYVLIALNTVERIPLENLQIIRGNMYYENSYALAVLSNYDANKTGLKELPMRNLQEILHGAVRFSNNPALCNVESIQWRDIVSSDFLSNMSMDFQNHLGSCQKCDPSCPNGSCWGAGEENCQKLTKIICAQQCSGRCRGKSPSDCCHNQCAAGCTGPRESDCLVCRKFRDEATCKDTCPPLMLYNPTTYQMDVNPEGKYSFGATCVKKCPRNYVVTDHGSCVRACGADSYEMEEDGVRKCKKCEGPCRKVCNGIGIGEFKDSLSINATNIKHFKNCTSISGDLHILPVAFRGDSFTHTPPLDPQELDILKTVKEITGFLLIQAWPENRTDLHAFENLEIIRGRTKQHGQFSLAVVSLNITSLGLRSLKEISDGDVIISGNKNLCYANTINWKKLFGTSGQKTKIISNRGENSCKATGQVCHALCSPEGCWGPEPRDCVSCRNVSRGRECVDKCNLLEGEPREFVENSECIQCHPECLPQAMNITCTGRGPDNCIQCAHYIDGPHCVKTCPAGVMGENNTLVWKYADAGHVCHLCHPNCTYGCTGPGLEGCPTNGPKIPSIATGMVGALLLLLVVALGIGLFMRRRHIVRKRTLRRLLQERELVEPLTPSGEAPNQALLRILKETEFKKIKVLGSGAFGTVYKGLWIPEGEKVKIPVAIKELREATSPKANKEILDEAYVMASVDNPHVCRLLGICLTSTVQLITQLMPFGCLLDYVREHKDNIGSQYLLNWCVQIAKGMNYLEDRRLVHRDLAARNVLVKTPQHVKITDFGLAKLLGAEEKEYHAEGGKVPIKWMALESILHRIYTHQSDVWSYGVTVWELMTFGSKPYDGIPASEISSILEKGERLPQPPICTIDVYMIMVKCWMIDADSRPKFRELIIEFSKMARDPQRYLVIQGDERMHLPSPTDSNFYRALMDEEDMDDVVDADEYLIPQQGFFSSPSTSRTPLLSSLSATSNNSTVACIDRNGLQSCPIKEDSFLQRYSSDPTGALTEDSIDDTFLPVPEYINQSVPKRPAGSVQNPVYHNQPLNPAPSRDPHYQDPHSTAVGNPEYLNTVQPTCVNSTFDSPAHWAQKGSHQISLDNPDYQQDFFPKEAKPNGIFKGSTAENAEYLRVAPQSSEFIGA
BTK, sequence (Q06187 whole entry): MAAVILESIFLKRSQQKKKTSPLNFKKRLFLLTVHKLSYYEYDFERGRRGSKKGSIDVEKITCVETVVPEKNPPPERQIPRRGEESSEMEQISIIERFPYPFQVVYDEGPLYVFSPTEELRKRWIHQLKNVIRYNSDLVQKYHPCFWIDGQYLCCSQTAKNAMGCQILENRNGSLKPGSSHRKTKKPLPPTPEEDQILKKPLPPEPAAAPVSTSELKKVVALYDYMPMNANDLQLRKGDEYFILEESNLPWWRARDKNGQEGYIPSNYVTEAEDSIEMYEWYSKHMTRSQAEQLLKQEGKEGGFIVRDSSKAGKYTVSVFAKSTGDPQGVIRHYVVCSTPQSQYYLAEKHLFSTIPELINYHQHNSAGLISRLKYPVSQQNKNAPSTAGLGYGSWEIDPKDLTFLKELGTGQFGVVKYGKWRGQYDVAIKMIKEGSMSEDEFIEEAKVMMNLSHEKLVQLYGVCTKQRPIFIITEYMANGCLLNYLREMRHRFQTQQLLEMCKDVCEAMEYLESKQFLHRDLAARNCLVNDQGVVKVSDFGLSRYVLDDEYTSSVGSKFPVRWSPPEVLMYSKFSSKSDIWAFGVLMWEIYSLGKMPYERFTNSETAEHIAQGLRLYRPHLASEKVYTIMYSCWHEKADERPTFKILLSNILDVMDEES
BMX, sequence (P51813 whole entry): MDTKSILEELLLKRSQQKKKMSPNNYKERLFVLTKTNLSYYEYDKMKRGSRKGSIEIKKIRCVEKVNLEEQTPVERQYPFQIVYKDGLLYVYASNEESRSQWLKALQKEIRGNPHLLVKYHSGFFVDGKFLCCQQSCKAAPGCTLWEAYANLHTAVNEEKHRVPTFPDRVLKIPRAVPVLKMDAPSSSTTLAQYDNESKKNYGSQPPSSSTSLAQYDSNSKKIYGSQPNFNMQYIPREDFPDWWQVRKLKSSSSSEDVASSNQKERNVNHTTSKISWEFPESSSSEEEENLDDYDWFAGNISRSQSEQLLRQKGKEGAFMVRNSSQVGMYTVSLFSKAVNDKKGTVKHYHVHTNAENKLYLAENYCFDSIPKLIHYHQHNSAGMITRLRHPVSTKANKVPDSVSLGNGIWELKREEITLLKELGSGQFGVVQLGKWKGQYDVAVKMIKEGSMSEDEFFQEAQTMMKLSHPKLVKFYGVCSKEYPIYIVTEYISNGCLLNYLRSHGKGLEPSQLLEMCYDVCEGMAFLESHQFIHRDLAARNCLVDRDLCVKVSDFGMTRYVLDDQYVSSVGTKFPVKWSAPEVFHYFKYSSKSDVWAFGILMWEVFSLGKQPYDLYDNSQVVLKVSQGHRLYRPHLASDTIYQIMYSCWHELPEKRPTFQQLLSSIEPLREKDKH
ITK, sequence (Q08881 whole entry): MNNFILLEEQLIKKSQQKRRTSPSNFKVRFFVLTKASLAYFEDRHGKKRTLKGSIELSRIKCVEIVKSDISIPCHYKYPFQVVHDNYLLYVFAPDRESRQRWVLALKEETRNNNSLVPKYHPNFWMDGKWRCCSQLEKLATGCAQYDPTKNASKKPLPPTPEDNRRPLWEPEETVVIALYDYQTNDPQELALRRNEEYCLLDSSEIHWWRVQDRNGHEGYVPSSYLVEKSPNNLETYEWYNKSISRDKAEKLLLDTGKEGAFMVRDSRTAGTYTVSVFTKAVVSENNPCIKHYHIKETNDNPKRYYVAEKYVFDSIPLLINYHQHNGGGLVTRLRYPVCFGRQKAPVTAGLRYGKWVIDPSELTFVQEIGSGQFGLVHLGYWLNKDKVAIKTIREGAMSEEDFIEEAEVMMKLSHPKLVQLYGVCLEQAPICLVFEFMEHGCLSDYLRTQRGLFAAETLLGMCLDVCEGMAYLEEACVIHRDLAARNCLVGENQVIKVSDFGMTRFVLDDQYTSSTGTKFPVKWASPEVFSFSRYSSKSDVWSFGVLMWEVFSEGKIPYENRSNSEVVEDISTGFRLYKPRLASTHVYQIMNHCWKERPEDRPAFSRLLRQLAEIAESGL

One may read the IC50 as the concentration needed to halve the response being measured. One may read the Vd as a proportionality between amount in the body and measured concentration, not a real space. A low value points to confinement near the circulation. What is called clearance is the rate of elimination divided by the concentration. A higher clearance goes with a high capacity for elimination. A word on the half-life: it is the time needed for the level to fall by half in the phase considered. What is called AUC is the area under the concentration-time curve, a measure of exposure. A low value points to less exposure. The Cmax is the peak of the concentration-time curve. By bioavailability is commonly meant dose-corrected exposure relative to a reference, in per cent. Low readings indicate poor availability, high ones good availability. Regarding `C=CC(=O)N1CCC(C2CCNn3c2nc(-c2ccc(Oc4ccccc4)cc2)c3C(N)=O)CC1` (single isomer, unassigned) [1a (peak 1)], on EGFR, the “Selectivity Ratio (BTK and EGFR)” value is 2.00; the IC50 was 5.2 nM. Also, in the series on TMD8 (TMD8, 72 hs), the IC50 came out at 5.4 nM. On BMX, the “Selectivity Ratio (BTK and BMX)” value was determined as 5.88; inhibition was half-maximal at 15.3 nM (IC50). In addition, on ITK, the IC50 was 483 nM; the “Selectivity Ratio (BTK and ITK)” value was found to be 185.6. The half-maximal inhibitory concentration (IC50) on BTK was 2.6 nM. In series [1] (iv 5 mg/kg), this molecule showed a Vd of 0.959 L/kg, a clearance of 27 mL/min/kg and a half-life of 24.6 min. Besides, in series [1] (po 5 mg/kg), the AUC was determined as 3430 ng·h/mL, the highest level (Cmax) was 923 ng/mL, the bioavailability amounted to 52.9% and the half-life was 84.6 min. In the series on 293T (Homo sapiens, HEK-293T), the concentration for half-maximal inhibition (IC50) turned out to be 8450 nM.

Turning to `NC(=O)c1c(-c2ccc(Oc3ccccc3)cc2)nc2n1NCCC2C1CCN(C(=O)/C=C/C(F)(F)F)CC1` (single isomer, unassigned) [10b (peak 2)], the “Selectivity Ratio (BTK and EGFR)” value at EGFR worked out at 638.75. The 50% inhibitory concentration (IC50) at EGFR is 39500 nM; in the series on TMD8 (TMD8, 72 hs), 257 nM; at BMX, 144 nM; at ITK, more than 30000 nM; at BTK, 61.8 nM; in the series on Ramos it was 6440 nM. Besides, the IC50 in the series with 293T was 1910 nM. Moreover, the “Selectivity Ratio (BTK and BMX)” value at BMX was found to be 2.32. Besides, the “Selectivity Ratio (BTK and ITK)” value at ITK is more than 485.4.

`NC(=O)c1c(-c2ccc(Oc3ccccc3)cc2)nc2n1NCCC2C1CCN(C(=O)/C=C/C(F)(F)F)CC1` (centres unmarked) [Example 10, 2-(4-Phenoxy-phenyl)-8-[1-(4,4,4-trifluoro-but-2-enoyl)-piperidin-4-yl]-5,6,7,8-tetrahydro-imidazo[1,2-b]pyridazine-3-carboxamide]: the “Selectivity Ratio (BTK and EGFR)” value on EGFR was found to be 235.36. In addition, the IC50 against EGFR was found to be 1930 nM; in the series with TMD8 (Homo sapiens, TMD8, TMD8, 72 hs), 51.6 nM; at BMX it was 49.5 nM; against ITK, 10800 nM; against BTK, 8.2 nM; in the series on Ramos (Homo sapiens) it was 2760 nM. Also, the IC50 in the series with 293T (Homo sapiens, HEK-293T) amounted to 45300 nM. Besides, the “Selectivity Ratio (BTK and BMX)” value at BMX worked out at 6.04. In addition, the “Selectivity Ratio (BTK and ITK)” value at ITK came out at 1314.

Regarding `C#CC(=O)N1CCC(C2CCNn3c2nc(-c2ccc(Oc4ccccc4)cc2)c3C(N)=O)CC1` (centres unmarked) [Example 11, 2-(4-phenoxyphenyl)-8-(1-propioloylpiperidin-4-yl)-5,6,7,8-tetrahydroimidazo[1,2-b]pyridazine-3-carboxamide], at EGFR, the “Selectivity Ratio (BTK and EGFR)” value is reported as 3.43. Besides, the IC50 was determined as 28.1 nM against EGFR; 22.8 nM against BMX; 225 nM against ITK; 8.2 nM on BTK; 725 nM in the series on Ramos (Homo sapiens); 1100 nM in the series with MOLM-13. For the same molecule, on BMX, the “Selectivity Ratio (BTK and BMX)” value is listed as 2.78. For the same molecule, the “Selectivity Ratio (BTK and ITK)” value on ITK worked out at 27.40.

`NC(=O)c1c(-c2ccc(Oc3ccccc3)cc2)nc2n1NCCC2C1CN(C(=O)/C=C/C(F)(F)F)C1` (centres unmarked) [Example 20, (E)-2-(4-phenoxyphenyl)-8-(1-(4,4,4-trifluorobut-2-enoyl)azetidin-3-yl)-5,6,7,8-tetrahydroimidazo[1,2-b]pyridazine-3-carboxamide]: at EGFR, the “Selectivity Ratio (BTK and EGFR)” value is reported as 405.5. Moreover, the “Selectivity Ratio (BTK and BMX)” value on BMX is 8.79. At ITK, the “Selectivity Ratio (BTK and ITK)” value turned out to be 1080.6. Further, the figures for the IC50 with Ramos (Homo sapiens) and with MOLM-13 were 294 nM and 1360 nM, respectively.
